Measurements from ChEMBL document CHEMBL3044796, “Design, synthesis, and biologic evaluation of some novel N-arylpyrazole derivatives as cytotoxic agents” (Med Chem Res, 2013).

Legend:
BGC-823 = experiment: Cytotoxicity against human BGC823 after 48 hrs by MTT assay; assay type: functional, cell-based; conditions: BGC-823, 48 h
HL-60 = experiment: Cytotoxicity against human HL60 after 48 hrs by MTT assay; assay type: functional, cell-based; conditions: HL-60, 48 h
Bel-7402 [1] = experiment: Cytotoxicity against human Bel7402 after 48 hrs by MTT assay; assay type: functional, cell-based; conditions: Bel-7402, 48 h
KB = experiment: Cytotoxicity against human KB after 48 hrs by MTT assay; assay type: functional, cell-based
Bel-7402 [2] = experiment: Ratio of cisplatin IC50 to compound IC50 for human Bel7402 cells; assay type: functional

Row | Structure (SMILES) | IC50 (BGC-823) [µM] | IC50 (HL-60) [µM] | IC50 (Bel-7402 [1]) [µM] | IC50 (KB) [µM] | Ratio IC50 (Bel-7402 [2])
1 | O=[N+]([O-])c1ccc(-n2cc(-c3ccncc3)cn2)cc1 | 20.8 | 17.8 | 23.2 | 19.2 | –
2 | O=[N+]([O-])c1ccc(-n2cc(-c3cc(C(F)(F)F)cc(C(F)(F)F)c3)cn2)cc1 | 18.5 | 11.4 | 7.39 | 12 | –
3 | Cc1nn(-c2ccc([N+](=O)[O-])cc2)c(C)c1-c1ccccc1-c1c(C)nn(-c2ccc([N+](=O)[O-])cc2)c1C | 25.4 | 16.2 | 19.9 | 25.6 | –
4 | O=[N+]([O-])c1ccc(-n2cc(-c3ccc(C(F)(F)F)cc3)cn2)cc1 | 13.8 | 17.3 | 7.15 | 21.3 | –
5 | O=[N+]([O-])c1ccc(-c2cnn(-c3ccc([N+](=O)[O-])cc3)c2)cc1 | 11.9 | 8.78 | 9.48 | 8.4 | –
6 | Cc1nn(-c2ccc([N+](=O)[O-])cc2)c(C)c1-c1cccc(-c2c(C)nn(-c3ccc([N+](=O)[O-])cc3)c2C)c1 | 11.9 | 10.6 | 11.8 | 10.1 | –
7 | CCCCCCCCOc1cc(-c2c(C)nn(-c3ccc([N+](=O)[O-])cc3)c2C)cc(-c2c(C)nn(-c3ccc([N+](=O)[O-])cc3)c2C)c1 | 8.4 | 7.91 | 5.22 | 6.31 | 1.5
